Measured values reported in paper PMC3795025, “A Target-Disease Network Model of Second-Generation BCR-ABL Inhibitor Action in Ph+ ALL” (PLoS ONE, 2013).

Target: LYN (Homo sapiens, UniProt P07948)
Test: chemical proteomics pulldown from cell lysate (c-bafetinib beads, competition with […] free drug)
Type: cell-based

Chain of LYN (P07948 2-512): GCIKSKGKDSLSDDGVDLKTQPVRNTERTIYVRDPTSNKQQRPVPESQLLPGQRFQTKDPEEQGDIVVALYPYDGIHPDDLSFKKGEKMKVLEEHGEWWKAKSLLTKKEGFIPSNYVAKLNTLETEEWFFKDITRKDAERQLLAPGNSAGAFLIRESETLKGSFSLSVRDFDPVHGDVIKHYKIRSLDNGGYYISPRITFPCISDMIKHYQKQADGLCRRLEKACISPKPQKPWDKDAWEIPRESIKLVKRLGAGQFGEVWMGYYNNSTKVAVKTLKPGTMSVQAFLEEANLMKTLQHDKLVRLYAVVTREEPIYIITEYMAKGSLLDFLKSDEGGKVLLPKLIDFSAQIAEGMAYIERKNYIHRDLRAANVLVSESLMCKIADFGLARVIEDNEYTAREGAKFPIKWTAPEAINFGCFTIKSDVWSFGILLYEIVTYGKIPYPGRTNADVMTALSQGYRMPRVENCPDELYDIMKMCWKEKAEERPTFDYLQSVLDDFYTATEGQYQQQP

Cc1ccc(NC(=O)c2ccc(CN3CC[C@H](N(C)C)C3)c(C(F)(F)F)c2)cc1Nc1nccc(-c2cncnc2)n1 [bafetinib]
chemical proteomics pulldown from cell lysate (c-bafetinib beads, competition wi): LYN and BTK have been identified with all four TKI in the present chemical proteomics screen
